From patent publication US20140037620A1, “Methods of Treating Breast Cancer with Gemcitabine Therapy” (British Columbia Cancer Agency Branch, priority 2012, published 2014)
Read-outs that look alike come from different tables or passages of the source.

What was measured:
[1] = system: women with locally advanced or metastatic breast cancer; conditions: for effect on OS / relative reduction for TTP: GD v D; for relative reduction in mortality from the addition of gemcitabine to docetaxel compared to docetaxel alone: patients with basal-like subtype (PAM50)
Experimental: Patients were randomly assigned to docetaxel (100 mg/m^2) day 1, every 21 days or gemcitabine (1000 mg/m^2) days 1 and 8 plus docetaxel (75 mg/m^2) day 8. Patients were either previously untreated, had prior anthracycline-based (neo)adjuvant chemotherapy or had received a single prior anthracycline-based chemotherapy regimen for metastatic breast cancer. The Danish Breast Cancer Cooperative Group (DBCG) prepared the original protocol as well as the biomarker supplement, and the Danish National Committee on Biomedical Research Ethics has approved the original protocol as well as the add-on (KF 02-045-01 and H-KF-02-045-01) before their activation. Time to progression (TTP) was the primary endpoint for the original trial as well as this biomarker sub-study (Nielsen et al., JCO 2011; 29:4748-4754). Overall survival (OS) and response rate (RR) were secondary endpoints. TTP was measured from random assignment to date of documented progression with censoring at date of last visit or of death. OS was calculated from date of random assignment to date of death with censoring for surviving patients at last visit date. Time-to-event endpoints (TTP and OS) were estimated by the Kaplan-Meier method, and PAM50 subtypes were compared using the log-rank test. Analyses of PAM50 subtypes were done unadjusted and adjusted for preselected covariates in multivariate Cox proportional hazards models. […] The adjusted model was further stratified for previous chemotherapy (Nielsen et al., JCO 2011; 29:4748-4754). The assumption of proportional hazards was assessed by Schoenfeld residuals. Analyses were done to assess whether treatment effects on TTP and OS varied according to PAM50 subtypes or the levels of preselected variables. The multivariate Cox proportional hazards model was extended by one interaction term at a time. The interaction terms were tested using the Wald test and results were given in a Forest plot. RR was evaluated for patients with measurable disease. […] RRs were compared by using Fisher's exact test.

[2] = system: women with locally advanced or metastatic breast cancer; conditions: original trial, 337 women, GD v D; cited from earlier work

gemcitabine plus docetaxel [GD]
gain in median overall survival, doublet arm compared to monotherapy arm ([1]; basal-like patients, Kaplan-Meier estimates): 10 months
effect on TTP across PAM50 intrinsic subtypes ([1]; multivariate Cox regression, interaction test): TTP seemed equally improved in PAM50 intrinsic subtypes
effect on OS ([1]; patients with HER2-enriched subtype): significantly worsened OS
risk of TTP events and mortality in the doublet arm compared to single agent docetaxel ([1]; patients with HER2 amplified tumors): higher risk of TTP events
effect on OS ([1]; patients with basal-like breast cancer): significantly improved OS
effect on OS ([1]; patients with basal-like breast cancer, listed as gemcitabine and docetaxel): more substantial reduction in mortality
relative reduction in mortality from the addition of gemcitabine to docetaxel compared to docetaxel alone [1]: 71%
relative reduction in mortality from the addition of gemcitabine to docetaxel compared to docetaxel alone ([1]; listed as gemcitabine plus docetaxel): 73%
relative reduction for TTP ([1]; patients with basal-like subtype): 63%
benefit from adding gemcitabine to docetaxel ([1]; patients with highly proliferative subtypes (non-luminal A)): No support was found for a more general benefit
survival benefit compared with docetaxel monotherapy ([1]; patients with non-basal-like subtypes): no significant incremental survival benefit
relative reduction for TTP ([1]; patients with other (non-basal-like) subtypes): 37%
HR for OS, treatment effect in the original study [2]: 0.94
HR for TTP, treatment effect in the original study [2]: 0.68
